Three compounds from patent US20190133968A1, “Applications of benzophenones in preparation of drug” (SHANXI MEDICAL UNIVERSITY, priority 2016, published 2019) can be followed below.

The test system of test [1] is Escherichia coli ATCC25922 standard strain. As to the kind of experiment: urinary and renal bacterial culture of acute pyelonephritis rats. It is filed as in vivo, SD rats. The settings on record: norfloxacin 66.7 mg/kg, gavage, 10 days. The protocol:
Ninety male SD rats having a weight of 180-220 g are selected, wherein: ten rats are selected as a sham-operated group (only being processed with ligation, without injecting with Escherichia coli), and the remaining rats are injected with Escherichia coli ATCC25922 standard strain having a concentration of 10^8/ml according to the method (disclosed in the Chinese Journal of Laboratory Animal Science, 1998, 8(1): pages 31-34) for preparing the acute pyelonephritis model rats.
After three days, urine of the rats is collected for bacterial culture, and the growth situation of the bacteria is observed. If the result is positive, the model rats are successively established; the unqualified rats are excluded, and the operation is made again for complementing the rats. The successively established model rats are randomly divided into the model group, the norfloxacin group (66.7 mg/kg), the LM49 solid dispersion low-dose group (with the drug concentration of 3 mg/kg), the LM49 solid dispersion medium-dose group (with the drug concentration of 9 mg/kg), the LM49 solid dispersion high-dose group (with the drug concentration of 27 mg/kg), the A8 solid dispersion low-dose group (with the drug concentration of 3 mg/kg), the A8 solid dispersion medium-dose group (with the drug concentration of 9 mg/kg), and the A8 solid dispersion high-dose group (with the drug concentration of 27 mg/kg).
The rats of the sham-operated group and the model group are administrated with the normal saline of same volume by gavage, and the rats of the other groups are respectively administrated with the drugs of the corresponding dose, once a day for consecutive ten days.
After finishing administration, urine of the rats of all groups is collected (for observing the bacterial growth situation). The abdominal aorta blood of the rats is drawn (for measuring the blood routine, CD4/CD8, urine creatinine and serum creatinine in the serum; and for measuring contents of IL-1α, IL-1β, IL-6, IL-10 and MCP-1 in the serum with the ELISA method). Two kidneys of each rat are cut (wherein a part is homogenated for bacterial culture, and the other part is used for observing the pathomorphology change).

Test [2] concerns chronic nephritis rats. As to the kind of experiment: chronic nephritis rat model (passive Heymann nephritis). It counts as in vivo, SD rats. The settings on record: dexamethasone 0.1 mg/kg, gavage; for IL-1α / IL-1β / IL-6 / IL-10 / Scr: serum. Here is the method: (§1) The solid dispersions are prepared through a solvent method, comprising steps of: respectively precisely weighing LM49, PVPK30 and tween80 with a weight ratio of 1:5:1, and A8, PVPK30 and tween80 with a weight ratio of 1:4:1; dissolving with appropriate absolute ethyl alcohol, continuously stirring, and uniformly mixing; placing on the water bath at 60° C., evaporating and removing the absolute ethyl alcohol, and obtaining a viscous material; placing in the freezer at −20° C., and freezing for 2 hours; taking out from the freezer, then placing in the vacuum drying oven, and drying for 24 hours; after becoming embrittlement, smashing and sieving with a sieve of 80 meshes, and then placing in the dryer for storage.
The passive Heymann nephritis is the classic model for researching the human chronic nephrosis. Thus, the present invention researches the effects of the two disclosed compounds on preventing the chronic nephritis with the model.
Ninety male SD rats having a weight of 180-220 g are selected, wherein: ten rats are selected as a blank group, and the remaining rats are used for preparing the rat Heymann nephritis models according to the method (disclosed in Journal of Proteomics, 2012, 75(3): pages 3866-3876). The successively established model rats are randomly divided into the model group, the positive control group (dexamethasone with a concentration of 0.1 mg/kg), the LM49 solid dispersion low-dose group (with the drug concentration of 3 mg/kg), the LM49 solid dispersion medium-dose group (with the drug concentration of 9 mg/kg), the LM49 solid dispersion high-dose group (with the drug concentration of 27 mg/kg), the A8 solid dispersion low-dose group (with the drug concentration of 3 mg/kg), the A8 solid dispersion medium-dose group (with the drug concentration of 9 mg/kg), and the A8 solid dispersion high-dose group (with the drug concentration of 27 mg/kg).
The rats of the blank group and the model group are administrated with the normal saline of same volume, and the rats of the other groups are respectively administrated with the drugs of the corresponding dose, by gavage, every day from model establishment for four weeks.
The blood of the rats of all groups is drawn at the second week and the fourth week from model establishment and 24-hour urine thereof is collected, for respectively measuring the contents of the urinary albumin, serum creatinine (Scr) in the serum, BUN, IL-1α, IL-1β, IL-6 and IL-10.
The data is represented in mean±(standard deviation) (x±s) and processed with the SPSS 19.0 statistical software. The one-way analysis of variance (ANOVA) is adopted for comparison among the groups, and then the LSD-Test is adopted for pairwise comparison. The differences of P<0.05 and P<0.01 are statistically significant.

For test [3], the system named is DN rats. As to the kind of experiment: type II diabetic nephropathy (DN) rat model (high-sugar high-fat diet + streptozocin). It is filed as in vivo, SD (Sprague Dawley) rats. The settings on record: DN rats, captopril 15 mg/kg, gavage, 6 weeks. The protocol:
as §1
The healthy adult male SD rats (having a weight of 180-220 g) are fed with the high-sugar and high-fat diet for 4 weeks; the rats are fasting overnight; and streptozocin (STZ) of 40 mg/kg is intraperitoneally injected into the rats. The rats of normal control group are injected with the sodium citrate buffer of same volume; 72 hours later, the rats are fasting for 12 hours. […] During the administration period, the successfully established model rats are still fed with the high-sugar and high-fat diet, while the rats of the normal control group are fed with the normal diet.
After administration for 6 weeks, 6-hour urine of the rats is collected with the metabolism cage.
The rats are fasting overnight and anesthetized intraperitoneally, then the abdominal aorta blood thereof is drawn for measuring the related indexes. The two kidneys of each rat are washed with the normal saline; weights of the kidneys are recorded; and the kidney coefficient (weights of two kidneys/body weight) is calculated. The renal tissues (comprising the glomerulus and renal tubules) at the same part of the left kidney are cut lengthwise and immersed in the 10% neutral formalin for pathomorphology analysis, and the other parts of the left kidney are used for biochemical index measurement; the right kidney is used for mechanism research and stored in the freezer at −80° C.
After successfully establishing the model rats, expect the normal control group (ten rats), the remaining rats are randomly divided into eight groups, wherein each group has twelve rats. The eight groups are respectively the model group, the LM49 solid dispersion low-dose group (with the drug concentration of 3 mg/kg), the LM49 solid dispersion medium-dose group (with the drug concentration of 9 mg/kg), the LM49 solid dispersion high-dose group (with the drug concentration of 27 mg/kg), the A8 solid dispersion low-dose group (with the drug concentration of 3 mg/kg), the A8 solid dispersion medium-dose group (with the drug concentration of 9 mg/kg), the A8 solid dispersion high-dose group (with the drug concentration of 27 mg/kg), and the captopril control group (with the drug concentration of 15 mg/kg).
Administration Way: By Gavage.
The rats of the normal control group and the model group are administrated with the normal saline of 1.0 ml/100 g; the rats of the positive control group, the LM49 solid dispersion high-dose, medium-dose and low-dose groups and the A8 solid dispersion high-dose, medium-dose and low-dose groups are respectively administrated with the drugs of different concentrations, and the administration volume is 1.0 ml/100 g.
The solid dispersions are dissolved by the normal saline; and the rats of the positive control group are administrated with the 0.5% CMC-Na (sodium carboxymethyl cellulose) suspension.
The rats are administrated seven days a week, for totally six weeks.
The IBM SPSS Statistics 20 software is used for data processing, and the data is represented in x±s. The one-way analysis of variance (ANOVA) is adopted for comparison among the groups. According to the homogeneity test results of variance, if the variance is equal, the LSD (least significant difference) test is adopted; if the variance is unequal, the Dunnett's T3 test is adopted. […]

Regarding `CCn1cc(C(=O)O)c(=O)c2cc(F)c(N3CCNCC3)cc21` [Norfloxacin, norfloxacin, reference compound], the “Renal bacterial culture score” value in test [1] (mean score, scale 1-4 of Table 10 (colony number <10, >10, >100, >1000)) was 1.2 ± 0.42^ΔΔ. The “Urinary bacterial A value (OD600 nm)” value in test [1] (urine culture) was 0.254 ± 0.082^ΔΔ.

For the compound `C[C@@H]1C[C@H]2[C@@H]3CCC4=CC(=O)C=C[C@]4(C)[C@@]3(F)[C@@H](O)C[C@]2(C)[C@@]1(O)C(=O)CO` [Dexamethasone, dexamethasone, reference compound], in test [2] (Fourth week), the “24-hour urinary protein quantitation” value is on record as 19.99 ± 3.5^ΔΔ mg/24 h, the IL-1α is listed as 9.33 ± 4.22^Δ pg/ml, the IL-1β was 163.44 ± 59.31^Δ pg/ml and the IL-6 was 61.31 ± 25.66^ΔΔ pg/ml. Besides, in test [2] (Fourth week), the IL-10 was 29.44 ± 59.31^ΔΔ pg/ml and the Scr turned out to be 44.32 ± 13.3 µmol/L. Further, in test [2] (Second week), the “24-hour urinary protein quantitation” value is on record as 20.87 ± 4.4^Δ mg/24 h, the IL-1α is given as 10.47 ± 2.45^Δ pg/ml, the IL-1β is listed as 184.55 ± 57.22^Δ pg/ml and the IL-6 is on record as 87.01 ± 31.44^ΔΔ pg/ml. In test [2] (Second week), the IL-10 is 51.09 ± 7.55 pg/mL and the Scr amounted to 46.22 ± 10.4 µmol/L.

With `C[C@H](CS)C(=O)N1CCC[C@H]1C(=O)O` [captopril, reference compound], in test [3], the BUN turned out to be 10.91 ± 1.15 mmol/L, the CREA came out at 52.15 ± 3.40 µmol/L and the Glycated hemoglobin came to 8.88 ± 0.55%. Also, in test [3] (6-hour urine), the Urinary protein is on record as 5.93 ± 1.59^□□ mg/6 h and the “mALB (microalbumin in urine)” value was 76.69 ± 7.69^□□ μg/6 h. For the same compound, in test [3] (renal tissues), the ICAM-1 is on record as 246.36 ± 49.25 pg/mgprog, the IL-1β stood at 102.32 ± 22.70 pg/mgprog, the IL-6 is given as 107.50 ± 20.22^□□ pg/mgprog and the MDA amounted to 1.04 ± 0.24 nmol/mgprog. In test [3] (renal tissues), the NF-κB is 174.49 ± 45.87^□□ pg/mgprog, the SOD came out at 4.42 ± 0.94 U/mgprog, the T-AOC is given as 1.48 ± 0.41 U/mgprog and the TGF-β1 is given as 36.72 ± 11.42^□□ pg/mgprot. In addition, in test [3] (renal tissues), the TNF-α was 292.79 ± 81.62^□ pg/mgprog and the VCAM-1 came out at 23.79 ± 3.50 pg/mgprog. Further, in test [3] (serum), the “Glucose (GLU)” value was 16.66 ± 4.34^□□ mmol/L, the HDL-C turned out to be 1.19 ± 0.35 mmol/L, the LDL-C is reported as 1.80 ± 0.27^□□ mmol/L and the TC is given as 3.06 ± 0.43^□□ mmol/L. In test [3] (serum), the TG is reported as 0.37 ± 0.09^□□ mmol/L and the UA is listed as 49.00 ± 3.24^□□ μmol/L. Moreover, the Kidney coefficient in test [3] (weights of two kidneys/body weight) was 1.02 ± 0.06%.
